# Experimental data reported in ChEMBL document CHEMBL1201862, “PubChem BioAssay data set” (2004).
# Calls of active or inactive are those of the source.
# Assays:
# [1] = T. cruzi growth inhibition in host cells, dose response, cell-based, plate reader, dry powder, set 2 (AID 652275); assay type: functional
# [2] = inhibitors of clade B AD8 Env fusion, dose response, cell-based, cherry-pick (AID 652062); assay type: functional;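 note: luciferase signal from cell-cell fusion driven by HIV-1 clade B AD8 Env; potency is for inhibitors of fusion seen as a drop in luminescence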
# [3] = inhibitors of HIV Env-driven cell fusion, dose response, cherry-pick (AID 652057); assay type: functional, cell-based
# [4] = off-target signal loss in HeLa-CEM21 co-culture – HeLa F-luc CTL cells, cherry-picked, counter-screen for HIV-1 Env fusion inhibitor project, dose response (AID 652040); assay type: functional, cell-based;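 note: potency for signal decrease marking cytotoxic or nonspecific inhibition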
# [5] = ZM109 Env clade C HIV-1 fusion inhibitors, dose response, HeLa effector, CEM target cells, luciferase, cherry-pick (AID 652058); assay type: functional, cell-based
# [6] = target: T1, Rac GTPase-activating protein 1 (Homo sapiens, UniProt Q9H0H5); experiment: MgcRacGAP GTPase-activating activity inhibitors, confirmation, biochemical, ADP Hunter fluorescence, primary and confirmatory (AID 624330); assay type: functional
# T1 sequence (Q9H0H5 whole entry): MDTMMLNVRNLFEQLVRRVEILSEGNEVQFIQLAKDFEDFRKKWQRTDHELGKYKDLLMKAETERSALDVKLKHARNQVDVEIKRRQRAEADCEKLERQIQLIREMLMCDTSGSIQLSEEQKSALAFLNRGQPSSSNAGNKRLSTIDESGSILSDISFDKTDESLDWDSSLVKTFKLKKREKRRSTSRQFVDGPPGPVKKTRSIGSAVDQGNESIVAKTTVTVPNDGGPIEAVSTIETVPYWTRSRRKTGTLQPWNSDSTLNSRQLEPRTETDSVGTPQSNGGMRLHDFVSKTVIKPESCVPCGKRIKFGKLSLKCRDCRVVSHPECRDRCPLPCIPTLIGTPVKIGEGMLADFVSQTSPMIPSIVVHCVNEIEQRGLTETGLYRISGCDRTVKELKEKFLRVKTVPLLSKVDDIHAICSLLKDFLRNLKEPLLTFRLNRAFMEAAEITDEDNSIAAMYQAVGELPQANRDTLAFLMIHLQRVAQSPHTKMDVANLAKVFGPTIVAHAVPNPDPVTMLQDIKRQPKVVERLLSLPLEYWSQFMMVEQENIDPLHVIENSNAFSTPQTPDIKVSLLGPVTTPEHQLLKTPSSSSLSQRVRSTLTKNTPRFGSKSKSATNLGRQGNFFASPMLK
# [7] = HeLa cell cytotoxicity, dose response, cytotoxicity control for MgcRacGAP inhibitor project (AID 624300); assay type: functional
# [8] = target: T2, Sentrin-specific protease 8 (Homo sapiens, UniProt Q96LD8); assay type: functional;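 note: luminescence read-out of SENP8 inhibition, dose-response confirmation following an ultra-high-throughput screen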
# T2 sequence (Q96LD8 whole entry): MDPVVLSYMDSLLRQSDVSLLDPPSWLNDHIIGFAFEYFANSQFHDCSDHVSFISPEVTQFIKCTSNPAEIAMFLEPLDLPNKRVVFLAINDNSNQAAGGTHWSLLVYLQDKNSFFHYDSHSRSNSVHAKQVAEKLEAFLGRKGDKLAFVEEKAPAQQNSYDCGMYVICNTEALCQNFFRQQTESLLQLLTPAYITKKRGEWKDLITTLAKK
# [9] = system: Streptococcus sp. 'group A'; experiment: growth inhibition of control SK(-) GAS strain, dose response, counter-screen for streptokinase expression inhibitor project, luminescence, kanamycin, BacTiterGlo, confirmation (AID 1900); assay type: functional, organism-based
# [10] = target: T3, Sentrin-specific protease 7 (Homo sapiens, UniProt Q9BQF6); assay type: functional;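 note: Luminescence-based dose-response confirmation of ultra-high-throughput screening hits, measuring inhibition of SENP7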
# T3 sequence (Q9BQF6 whole entry): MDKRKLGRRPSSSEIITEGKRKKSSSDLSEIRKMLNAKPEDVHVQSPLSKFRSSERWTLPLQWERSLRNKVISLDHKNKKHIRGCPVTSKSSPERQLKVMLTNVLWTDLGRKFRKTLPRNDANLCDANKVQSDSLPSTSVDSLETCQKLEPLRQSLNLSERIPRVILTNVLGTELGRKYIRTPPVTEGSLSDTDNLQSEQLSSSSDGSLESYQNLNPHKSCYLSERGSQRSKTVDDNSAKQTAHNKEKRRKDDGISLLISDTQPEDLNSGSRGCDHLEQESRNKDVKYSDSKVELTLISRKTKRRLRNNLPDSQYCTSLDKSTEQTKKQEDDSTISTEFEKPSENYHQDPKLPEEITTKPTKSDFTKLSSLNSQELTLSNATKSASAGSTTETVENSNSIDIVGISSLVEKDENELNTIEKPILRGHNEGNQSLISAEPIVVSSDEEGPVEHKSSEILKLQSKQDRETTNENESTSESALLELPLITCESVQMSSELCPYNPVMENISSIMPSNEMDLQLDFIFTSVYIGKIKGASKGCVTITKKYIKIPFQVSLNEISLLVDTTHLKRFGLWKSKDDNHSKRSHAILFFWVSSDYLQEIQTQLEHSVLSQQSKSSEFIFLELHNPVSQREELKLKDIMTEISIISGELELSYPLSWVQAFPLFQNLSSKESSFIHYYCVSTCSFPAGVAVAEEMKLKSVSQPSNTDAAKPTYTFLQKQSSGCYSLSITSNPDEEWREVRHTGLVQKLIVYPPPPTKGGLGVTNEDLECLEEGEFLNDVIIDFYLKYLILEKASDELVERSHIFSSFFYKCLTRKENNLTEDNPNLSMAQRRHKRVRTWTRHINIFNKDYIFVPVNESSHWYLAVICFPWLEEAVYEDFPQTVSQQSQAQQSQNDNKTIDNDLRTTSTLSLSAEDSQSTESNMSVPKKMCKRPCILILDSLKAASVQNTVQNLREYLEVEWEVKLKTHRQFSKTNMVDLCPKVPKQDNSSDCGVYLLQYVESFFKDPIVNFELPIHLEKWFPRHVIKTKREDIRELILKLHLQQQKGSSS
# [11] = target: T4, Sentrin-specific protease 6 (Homo sapiens, UniProt Q9GZR1); assay type: functional;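 note: Luminescence-based dose-response confirmatory assay of SENP6 inhibition, following up an ultra-high-throughput screen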
# T4 sequence (Q9GZR1 whole entry): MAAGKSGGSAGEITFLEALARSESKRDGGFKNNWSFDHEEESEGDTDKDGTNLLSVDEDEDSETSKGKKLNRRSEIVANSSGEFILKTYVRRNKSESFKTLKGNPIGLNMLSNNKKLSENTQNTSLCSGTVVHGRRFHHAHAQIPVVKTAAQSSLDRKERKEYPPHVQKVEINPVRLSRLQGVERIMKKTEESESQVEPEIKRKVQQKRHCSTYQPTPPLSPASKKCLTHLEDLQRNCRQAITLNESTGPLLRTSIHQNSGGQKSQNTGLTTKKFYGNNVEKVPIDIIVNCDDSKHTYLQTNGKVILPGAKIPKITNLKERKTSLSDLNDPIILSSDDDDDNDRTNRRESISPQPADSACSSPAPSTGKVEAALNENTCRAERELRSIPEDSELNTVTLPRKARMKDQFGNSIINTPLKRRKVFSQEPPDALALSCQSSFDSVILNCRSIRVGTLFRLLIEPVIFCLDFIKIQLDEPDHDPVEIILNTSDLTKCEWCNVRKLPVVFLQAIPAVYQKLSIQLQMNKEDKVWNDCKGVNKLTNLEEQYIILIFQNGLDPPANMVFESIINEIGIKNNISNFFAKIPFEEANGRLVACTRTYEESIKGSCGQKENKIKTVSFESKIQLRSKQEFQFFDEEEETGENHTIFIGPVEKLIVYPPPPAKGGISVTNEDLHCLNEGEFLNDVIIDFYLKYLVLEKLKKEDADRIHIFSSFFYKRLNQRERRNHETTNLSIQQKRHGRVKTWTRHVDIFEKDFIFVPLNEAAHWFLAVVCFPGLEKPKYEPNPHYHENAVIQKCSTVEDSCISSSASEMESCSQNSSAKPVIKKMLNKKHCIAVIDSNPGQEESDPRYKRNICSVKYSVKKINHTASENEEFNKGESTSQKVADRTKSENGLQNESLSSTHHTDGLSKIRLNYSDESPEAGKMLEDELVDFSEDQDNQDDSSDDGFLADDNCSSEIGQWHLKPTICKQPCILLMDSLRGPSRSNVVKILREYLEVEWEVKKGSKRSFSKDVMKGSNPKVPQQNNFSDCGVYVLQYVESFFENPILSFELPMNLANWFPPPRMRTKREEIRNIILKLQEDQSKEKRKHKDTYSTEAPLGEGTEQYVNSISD
# Streptococcus = experiment: Group A Streptococcus viability loss, dose response, counter-screen for streptokinase expression inhibitor project, luminescence, BacTiterGlo (AID 1915); assay type: functional, organism-based;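 note: potency for reduction of bacterial viability or growth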
# Caspase-3 = target: T5, Caspase-3 (Homo sapiens, UniProt P42574); assay type: functional;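 note: Dose-response selectivity test against caspase-3 for candidate inhibitors of sentrin-specific proteases (SENPs)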
# T5 sequence (P42574 whole entry): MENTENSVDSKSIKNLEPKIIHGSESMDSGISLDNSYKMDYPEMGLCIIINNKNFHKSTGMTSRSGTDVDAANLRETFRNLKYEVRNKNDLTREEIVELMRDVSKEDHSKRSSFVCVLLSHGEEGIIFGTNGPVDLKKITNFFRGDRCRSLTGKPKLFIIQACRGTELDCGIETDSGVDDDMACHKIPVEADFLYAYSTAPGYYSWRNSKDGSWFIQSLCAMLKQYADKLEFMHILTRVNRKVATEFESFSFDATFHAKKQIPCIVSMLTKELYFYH
# Streptokinase A = target: T6, Streptokinase A (Streptococcus pyogenes serotype M1, UniProt P10520); experiment: S. pyogenes streptokinase expression inhibitors, potency, dose response, plasminogen activation absorbance, OD405 (AID 1914); assay type: functional, Streptococcus pyogenes M1 GAS;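 note: secreted streptokinase activity via plasminogen activation per viability signal from cell pellet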
# T6 sequence (P10520 whole entry): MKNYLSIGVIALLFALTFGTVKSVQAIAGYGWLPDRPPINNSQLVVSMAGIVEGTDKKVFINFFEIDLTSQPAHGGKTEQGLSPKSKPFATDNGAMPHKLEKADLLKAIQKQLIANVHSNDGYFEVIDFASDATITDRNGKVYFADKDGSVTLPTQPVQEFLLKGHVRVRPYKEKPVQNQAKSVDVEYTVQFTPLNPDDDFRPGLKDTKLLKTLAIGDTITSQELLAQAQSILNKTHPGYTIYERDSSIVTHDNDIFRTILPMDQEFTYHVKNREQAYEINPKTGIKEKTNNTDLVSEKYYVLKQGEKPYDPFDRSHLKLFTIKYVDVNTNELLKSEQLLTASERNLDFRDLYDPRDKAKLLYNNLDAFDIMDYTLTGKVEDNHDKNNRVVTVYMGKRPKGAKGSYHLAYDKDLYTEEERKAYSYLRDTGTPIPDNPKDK
# [12] = Luminescence Cell-Based Dose Confirmation HTS to Identify Activators of 5'UTR Stem-Loop Driven Alpha-Synuclein mRNA Translation in H4 Neuroglioblastoma Cells. [Related pubchem assays: 1829 (Project Summary), 1814 (Primary HTS)]; assay type: functional
# H4 = experiment: Luminescence Cell-Based Dose Response HTS to Identify Activators of 5'UTR Stem-Loop Driven Prion Protein mRNA Translation in H4 Neuroglioblastoma Cells. [Related pubchem assays: 1829 (Project Summary), 1814 (Primary HTS)]; assay type: functional; conditions: Homo sapiens
# [13] = Luminescence Cell-Based Dose Response HTS to Identify Activators of Luciferase Translation or Activity in H4 […] Cells. [Related pubchem assays: 1829 (Project Summary), 1814 (Primary HTS)]; assay type: functional
# Paired box protein Pax-8 = Paired box protein Pax-8 (Homo sapiens, UniProt Q06710); experiment: inhibitors of PAX8-driven TPO luciferase reporter, dose response, RMG-I cells, cherry-pick (AID 687027); assay type: functional, cell-based;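 note: luciferase reporter driven by Pax8 target thyroperoxidase promoter measured by SteadyGlo luminescence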
# Chain of Paired box protein Pax-8 (Q06710 whole entry): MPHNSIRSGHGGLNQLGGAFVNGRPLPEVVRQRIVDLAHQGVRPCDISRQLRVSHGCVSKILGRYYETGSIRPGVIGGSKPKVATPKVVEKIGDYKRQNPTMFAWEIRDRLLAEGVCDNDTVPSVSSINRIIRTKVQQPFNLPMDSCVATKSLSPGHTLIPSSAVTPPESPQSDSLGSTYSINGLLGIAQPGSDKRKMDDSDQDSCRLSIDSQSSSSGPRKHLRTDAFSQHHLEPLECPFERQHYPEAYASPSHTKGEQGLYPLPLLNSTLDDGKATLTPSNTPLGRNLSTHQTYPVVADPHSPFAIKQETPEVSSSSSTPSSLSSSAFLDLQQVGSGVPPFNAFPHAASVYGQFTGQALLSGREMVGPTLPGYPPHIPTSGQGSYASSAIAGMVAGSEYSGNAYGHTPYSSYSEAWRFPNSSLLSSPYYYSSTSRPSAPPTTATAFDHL
compound,measurement,setting,value
CN(C)CC#Cc1cccc(-c2nc(C(=O)N3CCN(Cc4ccccc4)CC3)cc3c2[C@H](CCO)N([S+]([O-])C(C)(C)C)C3)c1 (stereo partly specified),AC50,[1],6.1 µM (active)
Cc1ccccc1S(=O)(=O)N1C[C@H]2[C@H]3C(=O)N(C4CCCCC4)C(=O)[C@H]3CC(=O)[C@H]2[C@@H]1c1ccc(Cl)cc1,AC50,[2],2.81 µM (active)
same,AC50,[3],0.396 µM (active)
same,AC50,[4],1.2 µM (active)
same,AC50,[5],0.874 µM (active)
CN(C[C@H](Cc1ccccc1)N(C[C@H](Cc1ccccc1)N(CC1(c2ccccc2)CC1)N=O)N=O)N=O,AC50,[2],7.28 µM (active)
same,AC50,[3],2.98 µM (active)
same,AC50,[4],3.05 µM (active)
same,AC50,[5],3.53 µM (active)
COc1cc(C(C[N+](=O)[O-])c2c(N)n(C)c(=O)n(C)c2=O)ccc1O (stereo unspecified),IC50,[6],111 µM (active)
same,CC50,[7],80.4 µM (active)
CCn1c(SCc2ccccc2Cl)nc2ccccc21,IC50,[8],29.3 µM (active)
same,EC50,[9],16.5 µM (active)
same,IC50,[10],11.3 µM (active)
same,IC50,[11],17.5 µM (active)
same,EC50,Streptococcus,> 150 µM (not active)
same,IC50,Caspase-3,40.6 µM (active)
same,EC50,Streptokinase A,21.4 µM (active)
Cc1cccc(C(=N)NOC(=O)N2c3ccccc3Sc3ccccc32)c1,EC50,[12],> 120 µM (not active)
same,EC50,H4,> 120 µM (not active)
same,EC50,[13],> 120 µM (not active)
same,CC50,[7],92.6 µM (active)
COc1ccc(S(=O)(=O)N(C)C[C@H]2OCCCC[C@H](C)Oc3ccc(N(C)C)cc3C(=O)N([C@H](C)CO)C[C@@H]2C)cc1,AC50,[1],9.32 µM (active)
Cc1ccccc1CN(C)C[C@H]1Oc2c(NC(=O)c3ccncc3)cccc2C(=O)N([C@@H](C)CO)C[C@@H]1C,AC50,[1],0.0559 µM (active)
Cc1ccc2c(c1)c1c3n2CCN(CC(N)=O)C3CCC1 (stereo unspecified),AC50,Paired box protein Pax-8,6.82 µM (active)
same,AC50,[4],7.87 µM (active)
Cc1ccccc1-c1nc2sc3c(c2c(=O)o1)CCC3,IC50,[8],> 100 µM (inactive)
same,IC50,[10],2.23 µM (active)
same,IC50,[11],3.42 µM (active)
same,IC50,Caspase-3,1.73 µM (active)
COc1cc(-c2ncc3ccccn23)cc(OC)c1OC,IC50,[6],123 µM (active)
same,CC50,[7],100 µM (active)
COc1ccc(NC(=O)Nc2ccc3c(c2)N(C)C(=O)CS3)cc1Cl,AC50,[2],11.8 µM (active)
same,AC50,[3],31.1 µM (active)
same,AC50,[4],> 70 µM (inactive)
same,AC50,[5],3.37 µM (active)
